From PubChem BioAssay AID1963839 (Molecular Pharmacology Branch, DTP, NCI, 2024)

Test system: 817829-284-R-J1-PDC complex spheroid viability
Assay: Anticancer human tumor 817829-284-R-J1-PDC patient-derived colon adenocarcinoma cell line growth inhibition [POLQ]
Conditions: for IC50: curve of first compound; for viability, T/C: stronger effect = lower value
Method in brief: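 PDC + HUVEC + MSC complex spheroids; POLQ inhibitors ± partner drugs; top conc. at/near clinical Cmax, else 10 microM (SN-38 1 microM), half-log dilutions; 37 degrees C, 5% CO2.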

[1] = second compound 0.0316 µM, first compound 0.00316 µM
[2] = second compound 0.0316 µM, first compound 0.01 µM
[3] = second compound 0.0316 µM, first compound 0.0316 µM
[4] = second compound 0.0316 µM, first compound 0.1 µM
[5] = second compound 0.0316 µM, first compound 0.316 µM
[6] = second compound 0.0316 µM, first compound 1 µM
[7] = second compound 0.1 µM, first compound 0.00316 µM
[8] = second compound 0.1 µM, first compound 0.01 µM
[9] = second compound 0.1 µM, first compound 0.0316 µM
[10] = second compound 0.1 µM, first compound 0.1 µM
[11] = second compound 0.1 µM, first compound 0.316 µM
[12] = second compound 0.1 µM, first compound 1 µM
[13] = second compound 0.316 µM, first compound 0.00316 µM
[14] = second compound 0.316 µM, first compound 0.01 µM
[15] = second compound 0.316 µM, first compound 0.0316 µM
[16] = second compound 0.316 µM, first compound 0.1 µM
[17] = second compound 0.316 µM, first compound 0.316 µM
[18] = second compound 0.316 µM, first compound 1 µM
[19] = second compound 1 µM, first compound 0.00316 µM
[20] = second compound 1 µM, first compound 0.01 µM
[21] = second compound 1 µM, first compound 0.0316 µM
[22] = second compound 1 µM, first compound 0.1 µM
[23] = second compound 1 µM, first compound 0.316 µM
[24] = second compound 1 µM, first compound 1 µM
[25] = second compound 3.16 µM, first compound 0.00316 µM
[26] = second compound 3.16 µM, first compound 0.01 µM
[27] = second compound 3.16 µM, first compound 0.0316 µM
[28] = second compound 3.16 µM, first compound 0.1 µM
[29] = second compound 3.16 µM, first compound 0.316 µM
[30] = second compound 3.16 µM, first compound 1 µM
[31] = second compound 10 µM, first compound 0.00316 µM
[32] = second compound 10 µM, first compound 0.01 µM
[33] = second compound 10 µM, first compound 0.0316 µM
[34] = second compound 10 µM, first compound 0.1 µM
[35] = second compound 10 µM, first compound 0.316 µM
[36] = second compound 10 µM, first compound 1 µM
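Further: spheroids exposed to compounds for 7 days.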
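Wherever viability, T/C is given: 100% = DMSO vehicle-treated spheroids.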

Q: What does the source list for CCc1c2c(nc3ccc(O)cc13)-c1cc3c(c(=O)n1C2)COC(=O)[C@]3(O)CC + Nc1ccc(C#CCN(C(=O)Cc2ncc(C(F)(F)F)cc2C(F)(F)F)c2ccc(F)cc2)nn1?
A: IC50 (second compound 0.0316 µM): < 3.16 nM; IC50 (second compound 0.1 µM): < 3.16 nM; IC50 (second compound 0.316 µM): < 3.16 nM; IC50 (second compound 1 µM): < 3.16 nM; IC50 (second compound 3.16 µM): < 3.16 nM; IC50 (second compound 10 µM): < 3.16 nM; viability, T/C [1]: 22.5%; viability, T/C [2]: 14.5%; viability, T/C [3]: 14.1%; viability, T/C [4]: 9.79%; viability, T/C [5]: 5.25%; viability, T/C [6]: 3.01%; viability, T/C [7]: 20.9%; viability, T/C [8]: 17.8%; viability, T/C [9]: 12.8%; viability, T/C [10]: 8.52%; viability, T/C [11]: 4.76%; viability, T/C [12]: 2.98%; viability, T/C [13]: 18.2%; viability, T/C [14]: 19.1%; viability, T/C [15]: 11.2%; viability, T/C [16]: 7.52%; viability, T/C [17]: 4.9%; viability, T/C [18]: 2.95%; viability, T/C [19]: 22.2%; viability, T/C [20]: 21.4%; viability, T/C [21]: 14.4%; viability, T/C [22]: 7.16%; viability, T/C [23]: 4.75%; viability, T/C [24]: 2.54%; viability, T/C [25]: 15.1%; viability, T/C [26]: 16.2%; viability, T/C [27]: 13%; viability, T/C [28]: 7.06%; viability, T/C [29]: 4.44%; viability, T/C [30]: 2.95%; viability, T/C [31]: 21.7%; viability, T/C [32]: 17%; viability, T/C [33]: 10%; viability, T/C [34]: 7.06%; viability, T/C [35]: 3.78%; viability, T/C [36]: 2.98%

Q: How did the IC50 (second compound 0.0316 µM) turn out when O=c1[nH]cc(F)c(=O)[nH]1 + COC1C(OC(N)=O)C(O)C(Oc2ccc3c(O)c(NC(=O)c4ccc(O)c(CC=C(C)C)c4)c(=O)oc3c2C)OC1(C)C was run?
A: 2400 nM

Q: What about the IC50 (second compound 0.1 µM) of the same compound?
A: 8960 nM

Q: And the IC50 (second compound 0.316 µM)?
A: 3420 nM

Q: And the IC50 (second compound 1 µM)?
A: 2920 nM

Q: What about the IC50 (second compound 3.16 µM) of the same compound?
A: 2130 nM

Q: And the IC50 (second compound 10 µM)?
A: 8930 nM

Q: And the viability, T/C [3]?
A: 97.6%

Q: And the viability, T/C [4]?
A: 144%

Q: What about the viability, T/C [5] of the same compound?
A: 102%

Q: What about the viability, T/C [6] of the same compound?
A: 68.8%

Q: What about the viability, T/C (second compound 0.0316 µM, first compound 3.16 µM) of the same compound?
A: 42.6%

Q: And the viability, T/C (second compound 0.0316 µM, first compound 10 µM)?
A: 43.1%

Q: What about the viability, T/C [9] of the same compound?
A: 90.7%

Q: What about the viability, T/C [10] of the same compound?
A: 94%

Q: What about the viability, T/C [11] of the same compound?
A: 92.5%

Q: And the viability, T/C [12]?
A: 77.6%

Q: What about the viability, T/C (second compound 0.1 µM, first compound 3.16 µM) of the same compound?
A: 50.2%

Q: What about the viability, T/C (second compound 0.1 µM, first compound 10 µM) of the same compound?
A: 50%

Q: And the viability, T/C [15]?
A: 80%

Q: What about the viability, T/C [16] of the same compound?
A: 84.2%

Q: And the viability, T/C [17]?
A: 70%

Q: What about the viability, T/C [18] of the same compound?
A: 70.2%

Q: And the viability, T/C (second compound 0.316 µM, first compound 3.16 µM)?
A: 51.1%

Q: What about the viability, T/C (second compound 0.316 µM, first compound 10 µM) of the same compound?
A: 26.6%

Q: What about the viability, T/C [21] of the same compound?
A: 98.3%

Q: And the viability, T/C [22]?
A: 86.8%

Q: And the viability, T/C [23]?
A: 95.1%

Q: What about the viability, T/C [24] of the same compound?
A: 86.5%

Q: What about the viability, T/C (second compound 1 µM, first compound 3.16 µM) of the same compound?
A: 47.2%

Q: What about the viability, T/C (second compound 1 µM, first compound 10 µM) of the same compound?
A: 47.3%

Q: What about the viability, T/C [27] of the same compound?
A: 128%

Q: And the viability, T/C [28]?
A: 114%

Q: What about the viability, T/C [29] of the same compound?
A: 108%

Q: And the viability, T/C [30]?
A: 57.8%

Q: What about the viability, T/C (second compound 3.16 µM, first compound 3.16 µM) of the same compound?
A: 50.4%

Q: And the viability, T/C (second compound 3.16 µM, first compound 10 µM)?
A: 39.9%

Q: What about the viability, T/C [33] of the same compound?
A: 107%

Q: What about the viability, T/C [34] of the same compound?
A: 101%

Q: What about the viability, T/C [35] of the same compound?
A: 77.9%

Q: What about the viability, T/C [36] of the same compound?
A: 84.3%

Q: What about the viability, T/C (second compound 10 µM, first compound 3.16 µM) of the same compound?
A: 62.3%

Q: What about the viability, T/C (second compound 10 µM, first compound 10 µM) of the same compound?
A: 47.4%

Q: Which IC50 (second compound 0.0316 µM) does the source give for C=CCn1c(=O)c2cnc(Nc3ccc(N4CCN(C)CC4)cc3)nc2n1-c1cccc(C(C)(C)O)n1 + Cc1cccc(N(C)C(=O)C2C(O)CCN2c2nc(C)cc(C(F)(F)F)c2C#N)c1 here?
A: 155 nM

Q: What about the IC50 (second compound 0.1 µM) of the same compound?
A: 218 nM

Q: What about the IC50 (second compound 0.316 µM) of the same compound?
A: 259 nM

Q: And the IC50 (second compound 1 µM)?
A: 236 nM

Q: What about the IC50 (second compound 3.16 µM) of the same compound?
A: 258 nM

Q: And the IC50 (second compound 10 µM)?
A: 233 nM

Q: And the viability, T/C [1]?
A: 90.2%

Q: And the viability, T/C [2]?
A: 91.5%

Q: What about the viability, T/C [3] of the same compound?
A: 102%

Q: And the viability, T/C [4]?
A: 53.4%

Q: What about the viability, T/C [5] of the same compound?
A: 34.8%

Q: What about the viability, T/C [6] of the same compound?
A: 5.25%

Q: And the viability, T/C [7]?
A: 91.6%

Q: And the viability, T/C [8]?
A: 92.9%

Q: What about the viability, T/C [9] of the same compound?
A: 89.3%

Q: What about the viability, T/C [10] of the same compound?
A: 71.1%

Q: And the viability, T/C [11]?
A: 39.9%

Q: And the viability, T/C [12]?
A: 5.58%

Q: And the viability, T/C [13]?
A: 98.3%

Q: What about the viability, T/C [14] of the same compound?
A: 107%

Q: And the viability, T/C [15]?
A: 93.8%

Q: And the viability, T/C [16]?
A: 84.9%

Q: And the viability, T/C [17]?
A: 42.6%

Q: And the viability, T/C [18]?
A: 7.22%

Q: And the viability, T/C [19]?
A: 111%

Q: What about the viability, T/C [20] of the same compound?
A: 98.2%

Q: What about the viability, T/C [21] of the same compound?
A: 101%

Q: And the viability, T/C [22]?
A: 82.4%

Q: What about the viability, T/C [23] of the same compound?
A: 38.7%

Q: What about the viability, T/C [24] of the same compound?
A: 6.42%

Q: And the viability, T/C [25]?
A: 104%

Q: And the viability, T/C [26]?
A: 102%

Q: What about the viability, T/C [27] of the same compound?
A: 99.6%

Q: What about the viability, T/C [28] of the same compound?
A: 74.9%

Q: And the viability, T/C [29]?
A: 45.3%

Q: And the viability, T/C [30]?
A: 6.52%

Q: And the viability, T/C [31]?
A: 118%

Q: What about the viability, T/C [32] of the same compound?
A: 88.9%

Q: What about the viability, T/C [33] of the same compound?
A: 86.2%

Q: What about the viability, T/C [34] of the same compound?
A: 79.4%

Q: And the viability, T/C [35]?
A: 39.5%

Q: What about the viability, T/C [36] of the same compound?
A: 5.63%
